Data as given in BindingDB's records for doi:10.1016/j.bmcl.2003.10.074 (University of Kentucky, 2004).

Test: Binding affinity towards blood brain barrier choline transporter at 10 uM using rat brain

Row | Compound | Ki [µM]
1 | CCCCCCCCCC[n+]1cccc([C@@H]2CCCN2C)c1 [1-Decyl-3-((S)-1-methyl-pyrrolidin-2-yl)-pyridinium; iodide] | 27
2 | CCCC[n+]1ccccc1 [1-Butyl-pyridinium] | 250
3 | CCCCCCCC[n+]1cccc([C@@H]2CCCN2C)c1 [(S)-3-(1-methylpyrrolidin-2-yl)-1-octylpyridinium iodide] | 49
4 | CCCCCCCC[N+](C)(C)CCO [(2-Hydroxy-ethyl)-dimethyl-octyl-ammonium] | 10
5 | CCCCCCCC[n+]1ccccc1 [1-Octyl-pyridinium; iodide] | 250
